Data as given in patent US20090082456A1, “SOLUBLE EPOXIDE HYDROLASE INHIBITORS” (Arete Therapeutics, Inc., priority 2007, published 2009).

What was measured:
[1] = tested on: soluble epoxide hydrolase (sEH); test: Fluorescent assay for mouse and human soluble epoxide hydrolase (CMNPC substrate); type: biochemical
Excerpt: Recombinant mouse sEH (MsEH) and human sEH (HsEH) were produced in a baculovirus expression system as previously reported. Grant et al., J. Biol. Chem., 268:17628-17633 (1993); Beetham et al., Arch. Biochem. Biophys., 305:197-201 (1993). The expressed proteins were purified from cell lysate by affinity chromatography. Wixtrom et al., Anal. Biochem., 169:71-80 (1988). Protein concentration was quantified using the Pierce BCA assay using bovine serum albumin as the calibrating standard. The preparations were at least 97% pure as judged by SDS-PAGE and scanning densitometry. They contained no detectable esterase or glutathione transferase activity which can interfere with the assay. The assay was also evaluated with similar results in crude cell lysates or homogenate of tissues. The IC50s for each inhibitor were according to the following procedure: Cyano(2-methoxynaphthalen-6-yl)methyl (3-phenyloxiran-2-yl)methyl carbonate (CMNPC; Jones P. D. et. al.; Analytical Biochemistry 2005; 343: pp. 66-75) Bis/Tris HCl 25 mM pH 7.0 containing 0.1 mg/mL of BSA (buffer A) Mother solution of enzyme in buffer A (Mouse sEH at 6 μg/mL and Human sEH at 5 μg/mL). Inhibitor dissolved in DMSO at the appropriate concentration. In a black 96 well plate, fill all the wells with 150 μL of buffer A. Add 2 μL of DMSO in well A2 and A3, and then add 2 μL of inhibitor solution in A1 and A4 through A12. Add 150 μL of buffer A in row A, then mix several time and transfer 150 μL to row B. Repeat this operation up to row H. The 150 μL removed from row H go to the trash. Add 20 μL of buffer A in column 1 and 2, then add 20 μL of enzyme solution to column 3 to 12. Incubate the plate for 5 minutes in the plate reader at 30° C. During incubation prepare the working solution of substrate by mixing 3.68 mL of buffer A (4×0.920 mL) with 266 μL (2×133 μL) of substrate solution). At t=0, add 30 μL of working substrate solution with multi-channel pipette labeled “Briggs 303” and start the reading ([S]final: 5 μM). Read with ex: 330 nm (20 nm) and em: 465 nm (20 nm) every 30 second for 10 minutes. The velocities are used to analyze and calculate the IC50s.

SMILES	% Inh ([1]; Conc 200 nM)	melting point	% Inh ([1]; Conc 1000 nM)	% Inh ([1]; Conc 2000 nM)
O=C(NC1CCC(NS(=O)(=O)c2cccc(C(F)(F)F)c2)CC1)NC12CC3CC(CC(C3)C1)C2 (stereo not shown) [Compound 1, N-(4-(3-(adamantan-1-yl)ureido)cyclohexyl)-3-(trifluoromethyl)benzenesulfonamide]	98%	310 to 312 °C	–	–
CC(=O)NC1CCC(NC(=O)NC23CC4CC(CC(C4)C2)C3)CC1 (stereo not shown) [Compound 2, N-(4-(3-(adamantan-1-yl)ureido)cyclohexyl)acetamide]	–	> 300 °C	98%	–
O=C(Nc1ccc(F)cc1)NC1CCC(NS(=O)(=O)c2cccc(C(F)(F)F)c2)CC1 (stereo not shown) [Compound 3, N-(4-(3-(4-fluorophenyl)ureido)cyclohexyl)-3-(trifluoromethyl)benzenesulfonamide]	98%	296 to 299 °C	–	–
CC(=O)NC1CCC(NC(=O)Nc2ccc(C(F)(F)F)cc2)CC1 (stereo not shown) [Compound 4, N-(4-(3-(4-(trifluoromethyl)phenyl)ureido)cyclohexyl)acetamide]	93%	–	–	–
CS(=O)(=O)NC1CCC(NC(=O)NC23CC4CC(CC(C4)C2)C3)CC1 (stereo not shown) [Compound 5, N-(4-(3-(adamantan-1-yl)ureido)cyclohexyl)methanesulfonamide]	96%	> 300 °C	–	–
CS(=O)(=O)NC1CCC(NC(=O)Nc2ccc(C(F)(F)F)cc2)CC1 (stereo not shown) [Compound 6, N-(4-(3-(4-(trifluoromethyl)phenyl)ureido)cyclohexyl)methanesulfonamide]	99%	237 to 239 °C	–	–
CS(=O)(=O)NC1CCC(NC(=O)c2ccc(F)cc2)CC1 (stereo not shown) [Compound 7, 4-fluoro-N-(4-(methylsulfonamido)cyclohexyl)benzamide]	–	269 to 270 °C	–	44%
